Tests used:
[1] = system: ovarian masses or hemorrhagic cysts; assay: incidence of ovarian masses or hemorrhagic cysts at necropsy; type: in vivo, mouse (female BALB/c); conditions: for # Ovary Masses/Cysts / % Yield (percentage of mice with ovarian masses or hemorrhagic cysts): GC4419 24 mg/kg i.p.; for occurrence of ovarian masses and hemorrhagic cysts vs untreated: final results (FIG. 4)
Experimental: All animal studies conducted used female BALB/c mice irradiated at 77-91 days of age and housed for a lifetime study to determine rates of carcinogenesis and survival. Animals were purchased from Charles River Laboratory, shipped to Brookhaven National Laboratory, and irradiated with the doses and ion species described below.
Animals were treated or not with GC4419. Those animals treated with GC4419 followed the following strategy. GC4419 was delivered at a dose of 24 mg/kg (mice were weighed prior to drug delivery) interperitoneally (i.p.) at roughly 45-60 minutes prior to radiation exposure. GC4419 was then provided i.p. for the next 6 days, and the animals were shipped to UT Southwestern (UTSW) Medical Center for temporary quarantine before returning to the animal facility. Upon return to UTSW the animals were treated with GC4419 i.p. weekly for another 11 weeks for a total of 12 weeks on treatment.
Radiation exposures were whole body. The galactic cosmic ray (GCR) simulation exposures used the beam line at the NASA Space Radiation Laboratory at Brookhaven National Lab (BNL) and the γ-ray exposures used a ^137Cs source at BNL. Subsequent to single dose irradiation, animals were returned to their cages.
Galactic cosmic rays (GCR) are heavy ion radiation characteristic of the deep space environment, and the GCR simulation (GCRsim) at BNL mimics the complex radiation environment in space. The GCRsim ions used are described in Table 1 below.
Pathological endpoints were also considered. Specifically, lung cancer induction, or carcinogenesis, and other tumors that are evident in numbers large enough to consider as secondary endpoints. These endpoints are described in the following tables and figure. The term “masses” is used to describe an abnormal growth, evident by eye, within a given tissue; for example, the term “lung masses” is used to describe abnormal tissues found in the lung that are collected for pathologic examination.
Given prior experience with the mouse model of radiation-induced carcinogenesis, it is expected that most, if not all, of the lung masses are tumors. For the ovarian masses, some proportion of the masses are expected to be tumors. For observations of hepatosplenomegaly, many of the enlarged livers and spleens may not reflect tumors of those organs. These may, however, may be present as result of hematologic malignancies, such as leukemias, but that was not assessed in this experiment.
Table 3 presents the incidence of ovarian masses and hemorrhagic cysts observed at necropsy by treatment cohort, including preliminary data for certain γ-ray cohorts through approximately 600 days post-irradiation and for unirradiated animals treated with GC4419 (Control+GC4419) cohort through approximately 400 days post-irradiation. FIG. 4 presents final results for incidence of ovarian masses and hemorrhagic cysts.

[2] = system: VEGFr inhibitor-induced pulmonary disease; conditions: rat; cited from earlier work

Question: Which “# Ovary Masses/Cysts” value ([1]; GCRsim 0.4 Gy, 224 mice) does the source give for `[Cl][Mn][Cl].c1cc2nc(c1)CN[C@H]1CCCC[C@@H]1NCCN[C@H]1CCCC[C@@H]1NC2` [GC4419] here?
Answer: 26

Question: And the “% Yield (percentage of mice with ovarian masses or hemorrhagic cysts)” value ([1]; GCRsim 0.4 Gy, 224 mice, untreated pair 12.5)?
Answer: 11.6%

Question: And the “# Ovary Masses/Cysts” value ([1]; GCRsim 0.75 Gy, 248 mice)?
Answer: 43

Question: And the “% Yield (percentage of mice with ovarian masses or hemorrhagic cysts)” value ([1]; GCRsim 0.75 Gy, 248 mice, untreated pair 24.2)?
Answer: 17.3%

Question: And the “occurrence of ovarian masses and hemorrhagic cysts vs untreated” value (“occurrence … vs untreated” below) ([1]; GCRsim 0.75 Gy)?
Answer: markedly decreased occurrence of ovarian masses and hemorrhagic cysts

Question: What about the “# Ovary Masses/Cysts” value ([1]; unirradiated (0 Gy), 235 mice, preliminary, approx. 400 days) of the same molecule?
Answer: 0

Question: What about the “% Yield (percentage of mice with ovarian masses or hemorrhagic cysts)” value ([1]; unirradiated (0 Gy), 235 mice, preliminary, approx. 400 days, untreated pair 10.6) of the same molecule?
Answer: 0.0%

Question: And the “occurrence … vs untreated” value ([1]; unirradiated)?
Answer: markedly decreased occurrence of ovarian masses and hemorrhagic cysts

Question: And the “# Ovary Masses/Cysts” value ([1]; γ-ray 0.75 Gy, 248 mice, preliminary for certain γ-ray cohorts (approx. 600 days))?
Answer: 22

Question: And the “% Yield (percentage of mice with ovarian masses or hemorrhagic cysts)” value ([1]; γ-ray 0.75 Gy, 248 mice, preliminary for certain γ-ray cohorts (approx. 600 days), untreated pair 28.9)?
Answer: 8.8%

Question: What about the “occurrence … vs untreated” value ([1]; γ-ray 0.75 Gy, statistically significant, p<0.05) of the same molecule?
Answer: markedly decreased occurrence of ovarian masses and hemorrhagic cysts

Question: What about the “# Ovary Masses/Cysts” value ([1]; γ-ray 1.5 Gy, 248 mice, preliminary for certain γ-ray cohorts (approx. 600 days)) of the same molecule?
Answer: 24

Question: What about the “% Yield (percentage of mice with ovarian masses or hemorrhagic cysts)” value ([1]; γ-ray 1.5 Gy, 248 mice, preliminary for certain γ-ray cohorts (approx. 600 days), untreated pair 21.7) of the same molecule?
Answer: 9.6%

Question: What about the pulmonary disease [2] of the same molecule?
Answer: attenuate VEGFr inhibitor-induced pulmonary disease

Source: patent publication US20260373193A1, “CARCINOGENESIS REDUCTION WITH PENTAAZA MACROCYLIC RING COMPLEX” (GALERA LABS, LLC, priority 2023, published 2026)
